Experimental data: BigSolDB 2.1

CC(=O)Nc1cccc(N)c1
solubility (mole fraction)
Settings | 278.15 K | 283.15 K | 288.15 K | 293.15 K | 298.15 K | 303.15 K | 308.15 K | 313.15 K | 318.15 K | 323.15 K
in DMF | 0.029 | 0.043 | 0.061 | 0.088 | 0.124 | 0.166 | 0.22 | 0.285 | 0.358 | 0.44
in THF | 0.108 | 0.146 | 0.194 | 0.256 | 0.328 | 0.404 | 0.487 | 0.568 | 0.653 | 0.729
in acetone | 0.05 | 0.063 | 0.081 | 0.101 | 0.125 | 0.153 | 0.186 | 0.225 | 0.27 | 0.319
in acetonitrile | 0.0283 | 0.0322 | 0.0382 | 0.0453 | 0.0535 | 0.0644 | 0.0752 | 0.0908 | 0.108 | 0.128
in ethyl acetate | 0.033 | 0.038 | 0.043 | 0.049 | 0.055 | 0.063 | 0.074 | 0.085 | 0.099 | 0.114
in isopropanol | 0.021 | 0.031 | 0.048 | 0.064 | 0.084 | 0.108 | 0.138 | 0.174 | 0.218 | 0.266
in methanol | 0.049 | 0.074 | 0.105 | 0.148 | 0.207 | 0.274 | 0.351 | 0.44 | 0.53 | 0.613
in water | 0.025 | 0.039 | 0.06 | 0.091 | 0.133 | 0.19 | 0.262 | 0.347 | 0.439 | 0.541
